Laboratory results from ChEMBL document CHEMBL5715954, “Silencing c-Myc translation as a therapeutic strategy through targeting PI3Kδ and CK1ε in hematological malignancies” (Blood, 2017).

What was measured:
Design in all cases: scale not given: the % may be the effect or the level left
[1] = molecular target: Tyrosine-protein kinase SYK (Homo sapiens) (UniProt P43405); assay: Inhibition of human SYK assessed as enzyme activity at 1 uM using poly[Glu:Tyr] (4:1) as substrate preincubated for 20 mins followed by [gamma-33P]-ATP addition and measured after 120 mins by radiometric Hot-SpotSM Kinase assay relative to control
[2] = molecular target: T1, Tyrosine-protein kinase receptor TYRO3 (Homo sapiens) (UniProt Q06418); assay: Inhibition of human TYRO3 assessed as enzyme activity at 1 uM using poly[Glu:Tyr] (4:1) as substrate preincubated for 20 mins followed by [gamma-33P]-ATP addition and measured after 120 mins by radiometric Hot-SpotSM Kinase assay relative to control
T1 sequence (whole entry): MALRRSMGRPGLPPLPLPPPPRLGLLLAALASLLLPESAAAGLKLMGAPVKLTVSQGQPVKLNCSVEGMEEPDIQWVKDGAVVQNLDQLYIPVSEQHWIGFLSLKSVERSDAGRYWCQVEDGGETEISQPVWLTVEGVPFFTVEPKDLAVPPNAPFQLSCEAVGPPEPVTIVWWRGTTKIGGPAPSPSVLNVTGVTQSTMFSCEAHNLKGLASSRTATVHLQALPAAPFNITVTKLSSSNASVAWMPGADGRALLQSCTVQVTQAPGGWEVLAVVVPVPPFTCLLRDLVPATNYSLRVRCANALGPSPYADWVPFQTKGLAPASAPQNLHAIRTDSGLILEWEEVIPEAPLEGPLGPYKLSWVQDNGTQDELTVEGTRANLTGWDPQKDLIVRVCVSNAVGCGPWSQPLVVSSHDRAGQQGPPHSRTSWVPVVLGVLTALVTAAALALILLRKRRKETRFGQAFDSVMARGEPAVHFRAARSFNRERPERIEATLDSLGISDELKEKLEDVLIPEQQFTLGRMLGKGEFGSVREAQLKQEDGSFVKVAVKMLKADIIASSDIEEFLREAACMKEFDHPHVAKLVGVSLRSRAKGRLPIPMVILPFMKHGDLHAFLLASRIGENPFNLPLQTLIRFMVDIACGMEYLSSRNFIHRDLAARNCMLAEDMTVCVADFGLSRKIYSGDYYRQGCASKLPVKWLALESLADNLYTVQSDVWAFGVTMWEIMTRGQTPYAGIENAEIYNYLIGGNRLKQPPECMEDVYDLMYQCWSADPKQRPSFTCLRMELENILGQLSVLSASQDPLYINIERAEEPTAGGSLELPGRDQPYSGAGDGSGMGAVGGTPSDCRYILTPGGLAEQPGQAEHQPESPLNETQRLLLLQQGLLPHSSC

[3] = molecular target: T2, Serine/threonine-protein kinase Nek3 (Homo sapiens) (UniProt P51956); assay: Inhibition of human NEK3 assessed as enzyme activity at 1 uM using myelin basic protein as substrate preincubated for 20 mins followed by [gamma-33P]-ATP addition and measured after 120 mins by radiometric Hot-SpotSM Kinase assay relative to control
T2 sequence (whole entry): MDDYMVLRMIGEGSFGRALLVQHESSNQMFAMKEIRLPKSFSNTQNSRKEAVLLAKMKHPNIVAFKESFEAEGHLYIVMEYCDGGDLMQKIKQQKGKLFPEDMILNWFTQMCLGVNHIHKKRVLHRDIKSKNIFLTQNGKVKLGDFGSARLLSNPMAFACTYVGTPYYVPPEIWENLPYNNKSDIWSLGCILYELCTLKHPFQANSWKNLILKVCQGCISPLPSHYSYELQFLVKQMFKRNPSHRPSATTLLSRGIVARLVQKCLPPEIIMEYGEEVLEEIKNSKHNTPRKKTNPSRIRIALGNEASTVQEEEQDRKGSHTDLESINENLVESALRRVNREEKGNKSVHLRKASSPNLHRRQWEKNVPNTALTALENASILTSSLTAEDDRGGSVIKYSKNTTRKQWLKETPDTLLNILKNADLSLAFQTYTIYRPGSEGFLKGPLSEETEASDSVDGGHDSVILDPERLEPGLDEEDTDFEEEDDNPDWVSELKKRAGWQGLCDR

[4] = molecular target: T3, Ephrin type-B receptor 2 (Homo sapiens) (UniProt P29323); assay: Inhibition of human EPHB2 assessed as enzyme activity at 1 uM using poly[Glu:Tyr] (4:1) as substrate preincubated for 20 mins followed by [gamma-33P]-ATP addition and measured after 120 mins by radiometric Hot-SpotSM Kinase assay relative to control
T3 sequence (whole entry): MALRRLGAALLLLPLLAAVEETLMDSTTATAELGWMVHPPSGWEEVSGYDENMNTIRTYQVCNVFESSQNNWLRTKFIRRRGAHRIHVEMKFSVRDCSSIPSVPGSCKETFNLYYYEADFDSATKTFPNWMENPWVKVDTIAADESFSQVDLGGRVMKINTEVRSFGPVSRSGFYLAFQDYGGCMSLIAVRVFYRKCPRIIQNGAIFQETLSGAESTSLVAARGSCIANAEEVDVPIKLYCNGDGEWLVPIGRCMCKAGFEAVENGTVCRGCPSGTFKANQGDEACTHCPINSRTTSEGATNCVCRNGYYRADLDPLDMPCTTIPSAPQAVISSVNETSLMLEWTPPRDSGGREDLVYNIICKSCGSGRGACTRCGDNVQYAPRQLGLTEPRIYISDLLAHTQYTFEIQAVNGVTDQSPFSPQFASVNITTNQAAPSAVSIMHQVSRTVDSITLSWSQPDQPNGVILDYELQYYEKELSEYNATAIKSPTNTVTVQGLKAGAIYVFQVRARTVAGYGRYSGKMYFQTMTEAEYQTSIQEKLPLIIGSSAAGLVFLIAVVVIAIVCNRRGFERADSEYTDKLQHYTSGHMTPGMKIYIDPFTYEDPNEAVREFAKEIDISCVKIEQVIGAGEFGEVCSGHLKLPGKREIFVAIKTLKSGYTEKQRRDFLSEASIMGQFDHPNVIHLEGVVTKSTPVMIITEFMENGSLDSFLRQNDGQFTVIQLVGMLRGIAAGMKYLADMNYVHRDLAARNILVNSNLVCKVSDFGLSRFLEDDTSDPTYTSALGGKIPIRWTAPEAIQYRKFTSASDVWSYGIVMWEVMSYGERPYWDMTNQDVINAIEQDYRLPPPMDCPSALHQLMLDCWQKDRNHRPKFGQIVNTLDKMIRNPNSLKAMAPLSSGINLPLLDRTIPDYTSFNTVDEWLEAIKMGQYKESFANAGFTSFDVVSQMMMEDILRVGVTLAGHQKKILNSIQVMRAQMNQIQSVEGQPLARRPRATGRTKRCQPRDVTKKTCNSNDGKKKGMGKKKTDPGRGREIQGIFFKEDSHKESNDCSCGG

[5] = molecular target: Serine/threonine-protein kinase PLK1 (Homo sapiens) (UniProt P53350); assay: Inhibition of human PLK1 assessed as enzyme activity at 1 uM using casein as substrate preincubated for 20 mins followed by [gamma-33P]-ATP addition and measured after 120 mins by radiometric Hot-SpotSM Kinase assay relative to control
Serine/threonine-protein kinase PLK1 (Homo sapiens), sequence (P53350 whole entry): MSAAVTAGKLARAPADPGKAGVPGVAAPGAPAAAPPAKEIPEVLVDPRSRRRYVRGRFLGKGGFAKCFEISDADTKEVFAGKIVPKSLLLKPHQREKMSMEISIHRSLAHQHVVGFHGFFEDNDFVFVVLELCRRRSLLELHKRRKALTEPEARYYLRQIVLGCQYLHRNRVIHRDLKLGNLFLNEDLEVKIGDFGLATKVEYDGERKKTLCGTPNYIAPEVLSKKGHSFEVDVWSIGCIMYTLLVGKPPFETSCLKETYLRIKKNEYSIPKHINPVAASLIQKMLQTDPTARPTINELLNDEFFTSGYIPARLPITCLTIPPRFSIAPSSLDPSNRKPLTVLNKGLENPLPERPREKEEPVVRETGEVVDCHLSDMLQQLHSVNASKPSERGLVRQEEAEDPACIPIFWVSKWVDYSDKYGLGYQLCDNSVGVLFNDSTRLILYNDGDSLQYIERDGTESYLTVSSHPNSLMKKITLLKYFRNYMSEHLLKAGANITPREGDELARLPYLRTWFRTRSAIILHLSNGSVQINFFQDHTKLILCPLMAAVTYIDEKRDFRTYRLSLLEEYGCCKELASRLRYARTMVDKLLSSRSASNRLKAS

With `CC[C@H](Nc1ncnc2[nH]cnc12)c1nc2cccc(F)c2c(=O)n1-c1ccccc1` the Activity [1] was 103%, the Activity [2] was 98.9% and the Activity [3] was 93.9%. It also gave an Activity [4] of 91.9% and an Activity [5] of 95.4%.

For `C[C@H](Nc1ncnc2nc[nH]c12)c1cc2cccc(Cl)c2c(=O)n1-c1ccccc1`, the Activity [1] was 100%, the Activity [2] was 98.5% and the Activity [3] was 98.5%. It also gave an Activity [4] of 92% and an Activity [5] of 94%.

With `CC(C)Oc1ccc(-c2nn([C@@H](C)c3oc4ccc(F)cc4c(=O)c3-c3cccc(F)c3)c3ncnc(N)c23)cc1F` [UMBRALISIB] the Activity [1] was 102%, the Activity [2] was 96.8% and the Activity [3] was 101%. For the same molecule, the Activity [4] was 95.9% and the Activity [5] was 98.4%.
